Results from US20240165097A1, “PHARMACEUTICAL COMPOSITION FOR THE TREATMENT OF ALZHEIMER'S DISEASE OR DEMENTIA” (Heptares Therapeutics Limited, priority 2021, published 2024).

Tested on: patients with mild-to-moderate AD
Experiment: Example D: Cogstate neuropsychological test battery
Type: in vivo, human
Text: Exploratory PD effects of HTL0018318 were examined via both behavioural (Cogstate neuropsychological test battery [NTB]) tests of cognitive function and electrophysiological (electroencephalogram [EEG] and evoked response potentials [ERPs]) biomarkers. Further details of each biomarker/test and outcome variables are provided below. Twelve-item neuropsychiatric inventory (NPI-12) scores were used to evaluate neuropsychiatric symptoms.
Exploratory pharmacodynamic endpoints (Cogstate tests and EEG/evoked response potential [ERP] biomarkers) were evaluated at screening (practice sessions) and baseline visits, and on Day 28±1. While this study was not powered to detect PD effects of small to moderate ESs, the study sample size provided approximately 80% power to detect a large ES of 0.97 for these endpoints using a significance level of 0.10.
A Cogstate neuropsychological test battery (NTB; http://www.Cogstate.com/) was administered as a computerised test, with the following cognitive tasks included in the battery. The total duration of the battery was approximately 30-40 minutes: • Identification (IDN)—reaction time (attention) • International shopping list immediate recall (ISL) and international shopping list-delayed recall (ISRL)—number of words recalled (episodic memory/verbal learning) • One back test (ONB)—accuracy and reaction time (working memory/executive function) • Groton maze learning (GML; forward and reverse maze learning)—accuracy (executive function)
The IDN is a measure of choice reaction time. In this task, an event (ie, a card turning face-up) occurs in the centre of the computer screen, and the patient must decide “YES” or “NO” as to whether or not this event meets a predefined and unchanging criterion (is the colour of the card red?). For this test, the primary dependent measure of the study was mean of the log10 transformed reaction times for correct responses.
The ISL and ISRL are a computer controlled verbal learning/episodic memory test. In this test, patients are read a list of 12 words. Each word is a concrete noun and describes an item of food that is found commonly in the culture/society in which testing is occurring. The examiner tells the patients “I am going to read to you a list of items I want you to get from the supermarket/store/market/shop”. After the 12 words have been read, the patient tries to recall as many of the words as they can immediately (ie, ISL immediate recall). Once they can recall no more words, the same list is read a second time with the words in the same order, after the same instruction. The process of reading the list and waiting for responses occurs 3 times. At the completion of the computerised battery (and with a minimum 20-minute delay) the patient is asked to recall as many of the items as they can from the shopping list (ISL delayed recall; ie, ISRL). For both ISL and ISRL tests, the primary dependent measure was number of words recalled.
The ONB memory task is a valid measure of working memory. In this task, the patient is shown a single stimulus in the centre of the computer screen (ie, a card turns face-up). He or she must decide “YES” or “NO” as to whether or not the current card matches the card that was seen on the immediately previous trial. The software measures the speed and accuracy of each response. For this test, the primary dependent measure of the study was arcsine transformation of the proportion of correct responses (i.e. accuracy).
The modified GML evaluates short-term memory. The test begins with a chase task to allow the patient to become familiar with the task context. The patient is shown a 10×10 grid of tiles on a computer touch screen. The patient is instructed to chase a moving tile around the grid. Once the patient understands the rules, he or she can proceed onto the timed chase test, where the patient must chase the target for 30 seconds. For the GML, the patient is shown the same 10×10 grid of tiles on a computer touch screen. […]

CCOC(=O)N1C2CCC1CC(N1CCC3(CC1)CNC(=O)C3)C2 (stereo not shown) [HTL0018318, ethyl 3-(3-oxo-2,8-diazaspiro[4.5]dec-8-yl)-8-azabicyclo[3.2.1]octane-8-carboxylate]
IDN attention (reaction time), ES (15 mg, Day 28): 0.62 | IDN attention (reaction time), LSM difference from placebo (15 mg, Day 28): 0.11 | ISL composite (immediate and delayed recall), LSM difference from placebo (25 mg, Day 28): 0.21 | ISL composite, ES (25 mg, Day 28): 0.48 | ISL-delayed recall, ES (25 mg, Day 28): 0.49 | ISL-delayed recall, LSM difference from placebo (25 mg, Day 28): 0.65 | ISL-immediate recall, ES (25 mg, Day 28): 0.34 | ISL-immediate recall, LSM difference from placebo (25 mg, Day 28): 1.11 words | IDN attention (reaction time) (5 and 25 mg, Day 28): Non-significant, improvements | ONB reaction time or accuracy, GML task (forward or reverse) performance (any HTL0018318 dose): no statistically significant differences
